This passage reports IC50 results from US8853226B2, “Tricyclic compounds as modulators of TNF-α synthesis and as PDE4 inhibitors” (High Point Pharmaceuticals, LLC, priority 2008, dated 2014).

pIC50: −log10 of the molar value. Where a name gives a salt, the structure may show the parent alone.

One test deals with PDE4B2 (Homo sapiens (Human), UniProt Q07343). The test is described as follows: PDE4 Inhibition Assay (TR-FRET IMAP, FAM-cAMP substrate). In kind it is biochemical. The settings on record: 100 nM cAMP, 30° C., 90 minutes. The method, then:
(§1) A TR-FRET-based phosphodiesterase assay kit from “Molecular Devices” was used to test whether these compounds were indeed direct inhibitors of the PDE4 enzyme. Using Roflumilast as a positive control, compounds of the present invention were tested against fluorescein-labeled cAMP substrate. The principle of the assay is based on the binding of a nucleotide monophosphate generated upon cAMP conversion to 5′ AMP by PDE to an “IMAP binding reagent”, which in turn is also ligated to a separate complex carrying terbium (Tb)-donor molecule. Proximity of the fluoreceinated 5′AMP to the Tb donor generates Fluorescence Resonance Energy Transfer. A PDE inhibitor will reduce the conversion of cAMP to 5′AMP, thus reducing monophosphate that can bind to the IMAP binding reagent and reduce the resulting FRET signal.
(§2) The assay buffer was prepared by diluting 5× supplied Tween-based buffer in 1:5 in water to make 1× buffer. Add desired additive to buffer (DTT or MnCl2). In a separate 96-well polypropylene plate, compound dilutions were prepared in assay buffer. Separate microcentrifuge tubes were prepared of PDE4B and PDE4D according to assay template—in assay buffer. The tubes were kept on ice. The enzyme concentration shown on the template were diluted by 1:4. FAM-cAMP substrate solution was prepared according to assay template. 5 μl compound was transferred from polypropylene plate into black 384-well plate. This plate was centrifuged briefly to make sure all 5 μl is on the bottom. Up to 80 μl of prepared PDE4B enzyme solution was transferred into alternate wells on row ‘N’ of 384-well plate starting from cell N1. Up to 80 μl of prepared PDE4D enzyme solution was transferred into alternate wells on row ‘O’ of 384-well plate, starting from cell O2. cAMP substrate solution was transferred into bottom row of separate 96-well plate. 5 μl of enzyme solution from the “reservoir” row (N or O) was transferred to each of the wells containing compounds, per layout map. Next, 10 μl of cAMP substrate was transferred to these wells. The order of substrate-first or enzyme-first can be switched depending on what is optimal. The final cAMP concentration was 100 nM in the reaction. 20 μl of assay buffer was pipetted into 4 separate wells—these are the blanks. The plate was sealed with an aluminum strip and incubated at 30° C. for 90 minutes. A TR-FRET solution was prepared. […]. 25 μl ( 1/800 of 20 ml) of binding beads was added to this and mix by inverting. 60 μl of this mixture was pipetted into 2 of the wells containing the “blank” assay buffer. Next, 49.7 μl ( 1/400 of remaining volume) of Tb donor solution was added to the remaining TR-FRET solution and mixed by inverting. 60 μl of this solution was pipetted into remaining 2 “blank” assay buffer-containing wells. The TR-FRET solution was poured into a pipette boat and a multichannel pipette was used to drop 60 μl of solution into all assay wells. The wells were covered with a foil strip and incubated for at least 3 hours or overnight protected from light (e.g. in a drawer) at room temperature. The plate was read on the Envision Reader: Emission 1: 520/Emission 2: 486/Exc: 340. Mirror: Umbelliferone (UV).

Another test addresses PDE4D (Homo sapiens (Human), UniProt Q08499). Described as above. The class given is biochemical. The settings on record: 100 nM cAMP, 30° C., 90 minutes. The method, then: as §1, §2

PDE4D, sequence (Q08499 whole entry, species assumed): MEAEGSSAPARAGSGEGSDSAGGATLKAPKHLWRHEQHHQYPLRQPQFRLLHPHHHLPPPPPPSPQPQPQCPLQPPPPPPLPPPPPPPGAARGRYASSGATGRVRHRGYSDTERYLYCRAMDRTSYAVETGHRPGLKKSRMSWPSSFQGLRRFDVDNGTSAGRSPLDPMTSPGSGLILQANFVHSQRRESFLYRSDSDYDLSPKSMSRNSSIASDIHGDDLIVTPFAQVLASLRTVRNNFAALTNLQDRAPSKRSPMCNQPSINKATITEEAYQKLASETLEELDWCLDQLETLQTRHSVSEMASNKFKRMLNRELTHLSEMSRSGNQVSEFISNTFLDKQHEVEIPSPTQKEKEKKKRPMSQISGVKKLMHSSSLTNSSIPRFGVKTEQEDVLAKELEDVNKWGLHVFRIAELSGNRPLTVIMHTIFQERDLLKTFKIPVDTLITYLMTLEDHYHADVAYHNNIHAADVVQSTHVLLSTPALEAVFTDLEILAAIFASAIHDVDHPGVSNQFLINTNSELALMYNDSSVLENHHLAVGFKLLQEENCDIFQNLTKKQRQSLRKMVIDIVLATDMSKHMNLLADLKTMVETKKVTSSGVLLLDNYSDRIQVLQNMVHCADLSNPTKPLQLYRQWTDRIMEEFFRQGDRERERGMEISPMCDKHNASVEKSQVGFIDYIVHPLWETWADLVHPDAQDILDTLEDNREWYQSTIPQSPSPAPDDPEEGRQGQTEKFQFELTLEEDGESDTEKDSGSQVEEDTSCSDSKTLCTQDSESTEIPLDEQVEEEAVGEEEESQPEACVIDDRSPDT
PDE4B2, sequence (Q07343 other isoform, or with tags, fused parts or gaps, species assumed): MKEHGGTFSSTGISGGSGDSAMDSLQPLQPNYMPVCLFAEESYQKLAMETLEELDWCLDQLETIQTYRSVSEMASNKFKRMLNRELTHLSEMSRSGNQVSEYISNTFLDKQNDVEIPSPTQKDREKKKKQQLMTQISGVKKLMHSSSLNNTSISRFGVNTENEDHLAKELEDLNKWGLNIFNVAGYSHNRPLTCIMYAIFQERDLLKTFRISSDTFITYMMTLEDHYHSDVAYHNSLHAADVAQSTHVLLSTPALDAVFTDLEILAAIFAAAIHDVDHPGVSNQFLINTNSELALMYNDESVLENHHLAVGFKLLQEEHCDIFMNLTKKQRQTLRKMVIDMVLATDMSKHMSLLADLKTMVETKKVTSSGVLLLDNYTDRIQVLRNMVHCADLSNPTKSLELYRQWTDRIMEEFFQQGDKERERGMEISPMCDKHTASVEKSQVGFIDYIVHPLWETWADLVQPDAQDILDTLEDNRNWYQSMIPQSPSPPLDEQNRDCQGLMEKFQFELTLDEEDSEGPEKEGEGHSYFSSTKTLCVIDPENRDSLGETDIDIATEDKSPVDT

What is called pIC50 is the negative decadic logarithm of the IC50, by convention in mol/L. A lower pIC50 goes with a large IC50. Take `CCS(=O)(=O)N1CCC(n2c(=O)n(-c3cccc(Cl)c3)c(=O)c3cnc4c(OC)cccc4c32)CC1` [Example 121, 3-(3-Chloro-phenyl)-1-(1-ethanesulfonyl-piperidin-4-yl)-7-methoxy-1H-pyrimido[5,4-c]quinoline-2,4-dione]: the pIC50 was 7.59 against PDE4B2 and 7.23 against PDE4D.
As for `COc1cccc2c1ncc1c(=O)n(-c3cccc(Cl)c3)c(=O)n(C3CCN(S(C)(=O)=O)CC3)c12` [Example 92, 3-(3-Chloro-phenyl)-1-(1-methanesulfonyl-piperidin-4-yl)-7-methoxy-1H-pyrimido[5,4-c]quinoline-2,4-dione], the pIC50 at PDE4B2 is 7.17; at PDE4D, 6.82.
As for `CCCc1cccc2c1ncc1c(=O)n(CC)c(=O)n(C3CCCC3)c12` [Example 32, 1-Cyclopentyl-3-ethyl-7-propyl-1H-pyrimido[5,4-c]quinoline-2,4-dione], the pIC50 against PDE4B2 and on PDE4D was 4.60 each time.
Consider `COc1cccc2c1ncc1c(=O)n(-c3cccc(C)c3)c(=O)n(C3CCCC3)c12` [Example 54, 1-Cyclopentyl-7-methoxy-3-m-tolyl-1H-pyrimido[5,4-c]quinoline-2,4-dione], for which the figures for the negative-log IC50 (pIC50) against PDE4B2 and on PDE4D were 7.11 and 6.47, respectively.
In the case of `COc1cccc2c1ncc1c(=O)n(-c3cccc(Cl)c3)c(=O)n([C@H]3CCN(S(C)(=O)=O)C3)c12` [Example 118, 3-(3-Chloro-phenyl)-1-((S)-1-methanesulfonyl-pyrrolidin-3-yl)-7-methoxy-1H-pyrimido[5,4-c]quinoline-2,4-dione], the results for the pIC50 against PDE4B2 and at PDE4D were 7.10 and 6.69, respectively.
For `COc1cccc2c1ncc1c(=O)n(-c3cccc(Cl)c3)c(=O)n([C@H]3CC[C@H](NS(C)(=O)=O)CC3)c12` [Example 127, N-{4-[(S)-3-(3-Chloro-phenyl)-7-methoxy-2,4-dioxo-3,4-dihydro-2H-pyrimido[5,4-c]quinolin-1-yl]-trans-cyclohexyl}-methanesulfonamide], the pIC50 against PDE4B2 was 7.60; on PDE4D it was 7.14.
Take `CCn1c(=O)c2cnc3c(C(C)C)cccc3c2n(C2CCCC2)c1=O` [Example 33, 1-Cyclopentyl-3-ethyl-7-isopropyl-1H-pyrimido[5,4-c]quinoline-2,4-dione]: the negative logarithm of the IC50 (pIC50) against PDE4B2 is 4.91; against PDE4D, 4.60.
Take `COc1cccc2c1ncc1c(=O)n(-c3cccc(Cl)c3)c(=O)n([C@H]3CC[C@H](C(=O)O)CC3)c12` [Example 103, Trans-4-[3-(3-Chloro-phenyl)-7-methoxy-2,4-dioxo-3,4-dihydro-2H-pyrimido[5,4-c]quinolin-1-yl]-cyclohexanecarboxylic acid.hydrochloride]: the pIC50 was 7.77 against PDE4B2 and 7.26 on PDE4D.
`COc1cccc2c1ncc1c(=O)n(-c3cccc(Cl)c3)c(=O)n([C@@H]3CCN(S(C)(=O)=O)C3)c12` [Example 115, 3-(3-Chloro-phenyl)-1-((R)-1-methanesulfonyl-pyrrolidin-3-yl)-7-methoxy-1H-pyrimido[5,4-c]quinoline-2,4-dione]: the negative logarithm of the IC50 (pIC50) was 7.31 on PDE4B2 and 6.79 at PDE4D.
As for `COc1cccc2c1ncc1c(=O)n(-c3cc(C)cs3)c(=O)n(C3CCCC3)c12` [Example 51, 1-Cyclopentyl-7-methoxy-3-(4-methyl-thiophen-2-yl)-1H-pyrimido[5,4-c]quinoline-2,4-dione], the negative logarithm of the IC50 (pIC50) is 6.90 on PDE4B2 and 6.21 on PDE4D.
Regarding `COc1cccc2c1ncc1c(=O)n(-c3ccc4c(c3)OCO4)c(=O)n(C3CCCC3)c12` [Example 84, 3-Benzo[1,3]dioxol-5-yl-1-cyclopentyl-7-methoxy-1H-pyrimido[5,4-c]quinoline-2,4-dione], the pIC50 on PDE4B2 was 6.29; on PDE4D, 6.08.
For the compound `CCn1c(=O)c2cnc3c(Cl)cccc3c2n(C2CCCC2)c1=O` [Example 30, 7-Chloro-1-cyclopentyl-3-ethyl-1H-pyrimido[5,4-c]quinoline-2,4-dione], the pIC50 was 4.77 against PDE4B2 and 4.60 against PDE4D.
